Data as given in ChEMBL document CHEMBL1201862, “PubChem BioAssay data set” (2004).
Values belong to the molecule of their own block, whether it stands above or below them. Activity calls are given as the source filed them.

What was measured:
[1] = target: DNA damage-inducible transcript 3 protein (Mus musculus, UniProt P35639); assay type: functional, Cricetulus griseus
[2] = target: T1, Kappa-type opioid receptor (Homo sapiens, UniProt P41145); assay type: functional
[3] = target: T1, Kappa-type opioid receptor; assay type: functional; remark: listed apart in the source
[4] = target: T1, Kappa-type opioid receptor; assay type: functional; remark: listed apart in the source
[5] = target: T2, Delta-type opioid receptor (Homo sapiens, UniProt P41143); experiment: HTS Image-Based Screen for Antagonists of the DOR Receptor. [Related pubchem assays (depositor defined):AID1777, AID1785, AID1786, AID2133]; assay type: functional
[6] = target: Mu-type opioid receptor (Homo sapiens, UniProt P35372); experiment: HTS Image-Based Screen for Agonists of the MOR Receptor. [Related pubchem assays (depositor defined):AID1777, AID1785, AID1786, AID2133]; assay type: functional;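 further: imaging of beta-arrestin GFP recruitment into spots after receptor activation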
[7] = target: T2, Delta-type opioid receptor; experiment: HTS Image-Based Screen for Agonists of the DOR Receptor. [Related pubchem assays (depositor defined):AID1777, AID1786, AID2133]; assay type: functional
[8] = target: T3, Carboxy-terminal domain RNA polymerase II polypeptide A small phosphatase 1 (Homo sapiens, UniProt Q9GZU7); experiment: inhibitors of CTDSP1, concentration-response testing, biochemical assay, absorbance-based, actives from ultra-high-throughput screening (AID 540297); assay type: functional
T3 sequence (Q9GZU7 whole entry): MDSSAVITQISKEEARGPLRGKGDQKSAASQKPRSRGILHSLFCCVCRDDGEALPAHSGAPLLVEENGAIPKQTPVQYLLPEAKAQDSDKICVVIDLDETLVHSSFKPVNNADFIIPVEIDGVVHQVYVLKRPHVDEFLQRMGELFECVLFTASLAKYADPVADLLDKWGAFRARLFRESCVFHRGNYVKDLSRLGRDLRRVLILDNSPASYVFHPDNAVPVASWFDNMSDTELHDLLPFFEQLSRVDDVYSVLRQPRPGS

[9] = target: ORF 73 (Human herpesvirus 8, UniProt O40947); experiment: inhibitors of C-LANA binding to LBS DNA, dose response, biochemical, fluorescence polarization, cherry-picked samples (AID 504725); design: species or system Human gammaherpesvirus 8;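 further: fluorescence polarization of a labeled DNA duplex reporting LANA DNA binding; potency is for inhibitors that block LANA binding to the DNA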
[10] = target: T4, Type-1 angiotensin II receptor (Homo sapiens, UniProt P30556); experiment: AT1 receptor agonists, dose response, selectivity assay for APJ receptor agonist project, cell-based, uHTS hits (AID 488865); assay type: functional;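 further: beta-arrestin recruitment to AT1 measured by enzyme fragment complementation luminescence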
T4 sequence (P30556 whole entry): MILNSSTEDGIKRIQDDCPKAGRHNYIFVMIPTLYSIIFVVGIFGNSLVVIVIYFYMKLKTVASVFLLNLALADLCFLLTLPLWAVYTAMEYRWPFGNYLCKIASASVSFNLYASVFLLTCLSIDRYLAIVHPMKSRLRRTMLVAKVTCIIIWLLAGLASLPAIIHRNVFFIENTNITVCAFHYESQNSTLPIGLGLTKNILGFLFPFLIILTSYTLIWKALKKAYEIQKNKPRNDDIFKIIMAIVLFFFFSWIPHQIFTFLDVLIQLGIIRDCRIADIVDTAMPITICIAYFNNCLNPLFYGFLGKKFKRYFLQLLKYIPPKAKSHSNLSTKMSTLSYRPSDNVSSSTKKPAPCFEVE

[11] = target: 5-hydroxytryptamine receptor 2B (Homo sapiens, UniProt P41595); experiment: Late-stage radioligand binding dose response assay to identify inhibitors of NADPH oxidase 1 (NOX1): PDSP screen Ki Set 2. [Related pubchem assays (depositor defined):AID1792, AID1796, AID1823, AID2532, AID2538, AID2539, AID2541, AID2545, AID2556, AID2664, AID2752, AID2773, AID2808, AID2819, AID434953, AID434974, AID434992, AID434993, AID434997 …
[12] = target: Lysosomal acid glucosylceramidase (Homo sapiens, UniProt P04062); experiment: Dose response cell-based high throughput screening assay to identify enhancers of beta-glucosidase activity. [Related pubchem assays: 784 ]; assay type: functional
[13] = test system: HT-29; experiment: Late-stage luminescence-based cell-based dose response assay to identify inhibitors of NADPH oxidase 1 (NOX1): Cytotoxicity assay 2.; assay type: functional; conditions: Homo sapiens
[14] = HEp-2 cell cytotoxicity, dose response, cytotoxicity control for RSV inhibitor project, HTS (AID 2410); assay type: functional; conditions: human respiratory syncytial virus
[15] = target: Alpha-2B adrenergic receptor (Homo sapiens, UniProt P18089); experiment: Late-stage radioligand binding dose response assay to identify inhibitors of NADPH oxidase 1 (NOX1): PDSP screen Ki Set 2. [Related pubchem assays (depositor defined):AID1792, AID1796, AID1823, AID2532, AID2538, AID2539, AID2541, AID2545, AID2556, AID2664, AID2752, AID2773, AID2808, AID2819, AID434953, AID434974, AID434992, AID434993, AID434997 …
[16] = target: T1, Kappa-type opioid receptor; experiment: as above
[17] = target: Alpha-2A adrenergic receptor (Homo sapiens, UniProt P08913); experiment: as above
[18] = target: D(3) dopamine receptor (Homo sapiens, UniProt P35462); experiment: as above
[19] = target: Alpha-2C adrenergic receptor (Homo sapiens, UniProt P18825); experiment: as above
[20] = target: Muscarinic acetylcholine receptor M2 (Homo sapiens, UniProt P08172); experiment: as above
[21] = target: T5, Rac GTPase-activating protein 1 (Homo sapiens, UniProt Q9H0H5); experiment: MgcRacGAP GTPase-activating activity inhibitors, confirmation, biochemical, ADP Hunter fluorescence, primary and confirmatory (AID 624330); assay type: functional
T5 sequence (Q9H0H5 whole entry): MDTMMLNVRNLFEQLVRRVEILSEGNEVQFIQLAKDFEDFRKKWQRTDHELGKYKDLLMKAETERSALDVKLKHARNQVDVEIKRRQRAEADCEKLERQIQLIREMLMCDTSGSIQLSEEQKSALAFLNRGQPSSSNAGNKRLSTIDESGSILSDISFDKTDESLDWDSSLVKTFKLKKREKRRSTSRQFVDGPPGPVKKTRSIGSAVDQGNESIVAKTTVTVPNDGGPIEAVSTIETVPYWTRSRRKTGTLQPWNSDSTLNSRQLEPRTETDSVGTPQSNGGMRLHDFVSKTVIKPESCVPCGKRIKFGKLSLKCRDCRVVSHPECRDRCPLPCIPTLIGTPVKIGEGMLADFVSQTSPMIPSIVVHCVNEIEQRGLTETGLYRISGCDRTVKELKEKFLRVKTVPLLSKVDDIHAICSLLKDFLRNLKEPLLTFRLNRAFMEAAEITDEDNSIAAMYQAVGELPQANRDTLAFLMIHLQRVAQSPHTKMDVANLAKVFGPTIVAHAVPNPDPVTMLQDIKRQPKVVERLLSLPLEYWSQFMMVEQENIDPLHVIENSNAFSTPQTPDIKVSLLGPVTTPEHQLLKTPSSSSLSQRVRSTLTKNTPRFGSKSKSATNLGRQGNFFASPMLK

[22] = target: Muscarinic acetylcholine receptor M1 (Homo sapiens, UniProt P11229); experiment: Late-stage radioligand binding dose response assay to identify inhibitors of NADPH oxidase 1 (NOX1): PDSP screen Ki Set 2. [Related pubchem assays (depositor defined):AID1792, AID1796, AID1823, AID2532, AID2538, AID2539, AID2541, AID2545, AID2556, AID2664, AID2752, AID2773, AID2808, AID2819, AID434953, AID434974, AID434992, AID434993, AID434997 …

T1 sequence (P41145 whole entry): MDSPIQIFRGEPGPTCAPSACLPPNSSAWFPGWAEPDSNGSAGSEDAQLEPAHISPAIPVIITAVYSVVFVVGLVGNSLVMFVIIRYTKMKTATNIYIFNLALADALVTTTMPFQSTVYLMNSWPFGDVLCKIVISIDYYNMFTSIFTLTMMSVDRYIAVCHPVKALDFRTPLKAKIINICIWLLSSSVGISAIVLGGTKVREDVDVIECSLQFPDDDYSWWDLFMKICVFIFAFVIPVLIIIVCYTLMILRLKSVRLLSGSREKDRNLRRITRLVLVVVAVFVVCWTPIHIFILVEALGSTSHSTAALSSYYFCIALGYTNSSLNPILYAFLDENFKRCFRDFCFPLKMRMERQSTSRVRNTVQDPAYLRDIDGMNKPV
T2 sequence (P41143 whole entry): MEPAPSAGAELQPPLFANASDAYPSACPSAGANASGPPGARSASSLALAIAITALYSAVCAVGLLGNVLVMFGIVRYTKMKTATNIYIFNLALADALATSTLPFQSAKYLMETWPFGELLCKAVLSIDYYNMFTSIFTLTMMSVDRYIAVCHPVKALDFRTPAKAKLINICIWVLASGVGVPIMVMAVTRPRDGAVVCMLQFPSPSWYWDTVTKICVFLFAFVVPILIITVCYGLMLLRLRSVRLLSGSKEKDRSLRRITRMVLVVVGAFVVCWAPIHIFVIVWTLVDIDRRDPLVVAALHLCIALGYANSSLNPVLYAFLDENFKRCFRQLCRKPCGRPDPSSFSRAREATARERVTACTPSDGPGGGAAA
Sequence of Mu-type opioid receptor (P35372 whole entry): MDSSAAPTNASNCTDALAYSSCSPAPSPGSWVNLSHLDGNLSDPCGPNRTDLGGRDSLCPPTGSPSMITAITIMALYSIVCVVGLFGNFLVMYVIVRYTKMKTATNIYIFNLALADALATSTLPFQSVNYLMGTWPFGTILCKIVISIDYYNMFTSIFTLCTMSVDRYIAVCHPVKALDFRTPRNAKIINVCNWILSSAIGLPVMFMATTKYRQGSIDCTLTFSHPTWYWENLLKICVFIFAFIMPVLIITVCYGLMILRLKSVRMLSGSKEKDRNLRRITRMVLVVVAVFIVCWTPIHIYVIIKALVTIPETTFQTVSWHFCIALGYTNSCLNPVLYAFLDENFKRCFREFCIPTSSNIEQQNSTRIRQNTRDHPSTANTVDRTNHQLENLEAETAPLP
Sequence of ORF 73 (O40947 whole entry, the tested form may be a part): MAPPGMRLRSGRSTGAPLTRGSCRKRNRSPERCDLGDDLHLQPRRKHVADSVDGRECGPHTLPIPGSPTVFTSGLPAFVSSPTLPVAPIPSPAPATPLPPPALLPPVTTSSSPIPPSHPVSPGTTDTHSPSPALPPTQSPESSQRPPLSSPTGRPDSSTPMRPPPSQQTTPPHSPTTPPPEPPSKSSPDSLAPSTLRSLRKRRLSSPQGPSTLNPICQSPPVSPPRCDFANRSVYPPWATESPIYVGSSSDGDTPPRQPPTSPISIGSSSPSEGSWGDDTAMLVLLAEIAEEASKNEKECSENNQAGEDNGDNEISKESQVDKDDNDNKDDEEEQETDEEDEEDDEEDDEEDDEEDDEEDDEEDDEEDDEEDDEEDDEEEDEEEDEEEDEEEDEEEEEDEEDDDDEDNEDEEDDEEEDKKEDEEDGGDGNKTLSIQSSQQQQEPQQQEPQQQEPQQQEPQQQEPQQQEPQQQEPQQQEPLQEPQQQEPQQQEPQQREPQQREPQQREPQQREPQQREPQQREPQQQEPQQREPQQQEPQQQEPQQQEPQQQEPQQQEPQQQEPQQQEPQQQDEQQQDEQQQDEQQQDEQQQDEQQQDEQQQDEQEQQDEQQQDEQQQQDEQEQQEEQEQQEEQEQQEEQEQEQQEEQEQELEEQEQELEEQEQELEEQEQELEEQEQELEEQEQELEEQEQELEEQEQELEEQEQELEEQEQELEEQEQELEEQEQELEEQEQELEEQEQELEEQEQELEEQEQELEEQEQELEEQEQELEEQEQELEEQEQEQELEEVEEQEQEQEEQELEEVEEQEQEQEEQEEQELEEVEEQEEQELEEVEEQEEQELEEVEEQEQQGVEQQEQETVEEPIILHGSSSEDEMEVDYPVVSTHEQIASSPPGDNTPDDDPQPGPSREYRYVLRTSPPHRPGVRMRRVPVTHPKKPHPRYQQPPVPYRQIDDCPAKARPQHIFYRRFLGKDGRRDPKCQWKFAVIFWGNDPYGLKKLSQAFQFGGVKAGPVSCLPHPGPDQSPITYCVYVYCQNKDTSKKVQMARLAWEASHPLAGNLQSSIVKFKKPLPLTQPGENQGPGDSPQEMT
Sequence of Alpha-2B adrenergic receptor (P18089 whole entry): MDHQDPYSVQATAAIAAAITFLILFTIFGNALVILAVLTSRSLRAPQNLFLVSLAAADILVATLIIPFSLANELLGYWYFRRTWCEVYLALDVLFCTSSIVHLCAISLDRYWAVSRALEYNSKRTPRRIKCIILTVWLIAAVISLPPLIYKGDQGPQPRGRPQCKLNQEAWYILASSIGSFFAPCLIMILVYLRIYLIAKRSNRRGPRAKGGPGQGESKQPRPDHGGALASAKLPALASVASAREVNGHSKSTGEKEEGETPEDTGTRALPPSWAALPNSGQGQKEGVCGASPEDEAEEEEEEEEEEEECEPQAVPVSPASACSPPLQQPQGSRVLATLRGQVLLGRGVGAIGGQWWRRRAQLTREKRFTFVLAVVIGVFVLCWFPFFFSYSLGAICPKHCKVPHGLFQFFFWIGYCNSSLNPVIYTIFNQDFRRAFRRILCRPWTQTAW
Sequence of Alpha-2A adrenergic receptor (P08913 whole entry): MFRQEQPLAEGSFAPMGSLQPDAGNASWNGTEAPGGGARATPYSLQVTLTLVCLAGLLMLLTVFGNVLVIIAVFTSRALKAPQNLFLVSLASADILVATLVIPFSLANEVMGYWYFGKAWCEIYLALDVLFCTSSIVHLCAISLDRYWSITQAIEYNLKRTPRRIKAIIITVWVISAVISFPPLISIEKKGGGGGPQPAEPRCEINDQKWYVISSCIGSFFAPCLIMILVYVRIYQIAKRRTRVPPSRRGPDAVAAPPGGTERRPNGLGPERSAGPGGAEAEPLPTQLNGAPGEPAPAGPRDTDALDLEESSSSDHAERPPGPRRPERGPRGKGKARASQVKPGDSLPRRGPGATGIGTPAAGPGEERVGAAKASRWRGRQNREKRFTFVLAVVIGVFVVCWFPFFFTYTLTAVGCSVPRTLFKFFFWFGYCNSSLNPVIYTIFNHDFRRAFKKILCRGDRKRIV
Sequence of 5-hydroxytryptamine receptor 2B (P41595 whole entry): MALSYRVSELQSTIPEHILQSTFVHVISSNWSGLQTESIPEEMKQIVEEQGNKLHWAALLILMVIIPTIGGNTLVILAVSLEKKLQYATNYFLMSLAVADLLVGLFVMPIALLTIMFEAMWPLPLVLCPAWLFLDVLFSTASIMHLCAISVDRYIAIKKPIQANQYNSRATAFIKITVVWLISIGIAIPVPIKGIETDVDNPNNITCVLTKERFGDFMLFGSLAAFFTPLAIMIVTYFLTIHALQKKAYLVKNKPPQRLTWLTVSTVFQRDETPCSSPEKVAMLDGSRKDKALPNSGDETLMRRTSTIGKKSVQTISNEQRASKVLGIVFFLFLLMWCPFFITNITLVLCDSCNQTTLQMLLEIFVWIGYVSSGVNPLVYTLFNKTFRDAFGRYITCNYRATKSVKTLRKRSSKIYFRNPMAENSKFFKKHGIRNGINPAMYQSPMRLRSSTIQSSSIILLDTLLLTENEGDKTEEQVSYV
Sequence of D(3) dopamine receptor (P35462 whole entry): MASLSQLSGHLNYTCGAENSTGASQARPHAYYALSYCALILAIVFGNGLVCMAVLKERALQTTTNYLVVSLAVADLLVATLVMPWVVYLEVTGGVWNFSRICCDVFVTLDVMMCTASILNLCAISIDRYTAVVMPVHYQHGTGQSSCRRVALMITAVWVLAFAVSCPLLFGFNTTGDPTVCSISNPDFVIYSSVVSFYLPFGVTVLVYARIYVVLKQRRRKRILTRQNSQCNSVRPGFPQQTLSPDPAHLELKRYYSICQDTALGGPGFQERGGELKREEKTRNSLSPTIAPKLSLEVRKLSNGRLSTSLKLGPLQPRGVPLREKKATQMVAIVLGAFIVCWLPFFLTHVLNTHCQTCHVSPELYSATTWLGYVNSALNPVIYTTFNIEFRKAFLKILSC
Sequence of Alpha-2C adrenergic receptor (P18825 whole entry): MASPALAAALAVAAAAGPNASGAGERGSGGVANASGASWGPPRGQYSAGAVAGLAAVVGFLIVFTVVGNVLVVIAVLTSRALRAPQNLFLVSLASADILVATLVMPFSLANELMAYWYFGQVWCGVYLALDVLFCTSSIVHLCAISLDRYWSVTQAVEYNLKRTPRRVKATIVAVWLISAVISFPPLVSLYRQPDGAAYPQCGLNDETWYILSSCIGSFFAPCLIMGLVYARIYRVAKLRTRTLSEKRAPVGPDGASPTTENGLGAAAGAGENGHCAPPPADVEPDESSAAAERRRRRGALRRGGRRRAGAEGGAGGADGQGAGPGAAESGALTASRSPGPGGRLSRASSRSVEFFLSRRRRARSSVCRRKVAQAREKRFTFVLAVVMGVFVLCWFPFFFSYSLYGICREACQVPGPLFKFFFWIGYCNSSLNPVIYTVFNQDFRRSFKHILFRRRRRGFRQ
Sequence of DNA damage-inducible transcript 3 protein (P35639 whole entry): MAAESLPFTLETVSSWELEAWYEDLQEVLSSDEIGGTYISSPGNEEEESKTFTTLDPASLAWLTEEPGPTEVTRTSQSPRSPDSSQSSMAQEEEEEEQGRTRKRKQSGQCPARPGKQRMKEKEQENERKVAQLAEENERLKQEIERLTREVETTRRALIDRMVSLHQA

SMILES: C/C(=N\NC(=O)c1nn(C)c(C)c1Br)c1ccc(NC(=O)c2ccoc2C)cc1
Absolute IC50 (CHOP) [1]: 10 µM

EC50 [2]: < 0.5 µM | EC50 [3]: 0.0599 µM | IC50 [4]: > 5 µM (inactive) | IC50 [5]: > 32 µM (inactive) | EC50 [6]: > 32 µM (inactive) | EC50 [7]: > 32 µM (inactive)
SMILES: CCC(C)(C(=O)NC1CCCCC1)N(Cc1cccs1)C(=O)c1ccccn1 (configuration not stated)

IC50 [8]: 3.21 µM (active) | AC50 [9]: 67.7 µM (active)
SMILES: N=C1/C(=C/c2ccc(-c3cccc(C(=O)O)c3)o2)C(=O)N=C2SC(CC(=O)N3CCOCC3)=NN12

SMILES: CCCSc1nc(O)c(CC)c(=O)n1C(C)CC (configuration not stated)
EC50 [10]: > 100 µM (inactive)

Ki [11]: 0.3 µM (active) | EC50 [12]: > 50 µM (not active) | Ki [15]: > 10 µM (inactive) | Ki [16]: > 10 µM (inactive) | Ki [17]: > 10 µM (inactive) | Ki [18]: > 10 µM (inactive) | Ki [19]: > 10 µM (inactive) | Ki [20]: > 10 µM (inactive) | IC50 [21]: 31.6 µM (active) | Ki [22]: > 10 µM (inactive)
SMILES: CC(=O)c1ccc2c(c1)Nc1ccccc1S2
CC50 [13]: > 20 µM (not active) | CC50 [14]: 18.5 µM (active)
